In patent US20070249634A1, “Triazolopyrimidine Compounds and Use Thereof for Controlling Harmful Fungi” (priority 2004, published 2007):

CC1CCN(c2c(-c3cc([N+](=O)[O-])ccc3Cl)c(Cl)nc3ncnn23)CC1 [compound 56, 5-chloro-6-(2-chloro-5-nitrophenyl)-7-(4-methylpiperidin-1-yl)-[1,2,4]-triazolo[1,5-a]pyrimidine]
melting point: 199 to 204 °C
